# In patent US20230167467A1, “METHODS AND COMPOSITIONS FOR THE PRODUCTION OF ISOBUTENE” (University of Alaska Anchorage, priority 2020, published 2023):
# B1: MVD: mevalonate diphosphate decarboxylase of Saccharomyces cerevisiae, enzyme and gene/transcript (optimized gene SEQ ID NO:2) (protein)
# chain: MTVYTASVTAPVNIATLKYWGKRDTKLNLPTNSSISVTLSQDDLRTLTSAATAPEFERDTLWLNGEPHSIDNERTQNCLRDLRQLRKEMESKDASLPTLSQWKLHIVSENNFPTAAGLASSAAGFAALVSAIAKLYQLPQSTSEISRIARKGSGSACRSLFGGYVAWEMGKAEDGHDSMAVQIADSSDWPQMKACVLVVSDIKKDVSSTQGMQLTVATSELFKERIEHVVPKRFEVMRKAIVEKDFATFAKETMMDSNSFHATCLDSFPPIFYMNDTSKRIISWCHTINQFYGETIVAYTFDAGPNAVLYYLAENESKLFAFIYKLFGSVPGWDKKFTTEQLEAFNHQFESSNFTARELDLELQKDVARVILTQVGSGPQETNESLIDAKTGLPKE
# modifications: optimized gene; MVD optimized gene sequence
# Columns and labels:
# [1] = test system: Engineered strains of E. coli; assay type: cell-based
# [2] = purified MVD on 3-HIV; cited from earlier work
# [3] = after solvent exposure, vs positive control
molecule,measurement,setting,value
CC(C)CO [isobutanol],expression of RNAse adapter protein rapZ,[1],downregulation
same,expression of accBC (fatty acid biosynthesis),[1],downregulated
same,expression of adiA,[1],downregulated
same,expression of bssRS (decreasing biofilm material),[1],upregulated
same,expression of chaperone genes groLS and dnaJK,[1],increased expression
same,expression of gadABCE (acid resistance via GABA production),[1],downregulated
same,expression of gatY and marCRAB loci,[1],upregulation
same,expression of glpABC (glycerol to glycerone phosphate),[1],increased in expression
same,expression of heat shock proteins and chaperones hslJORUV,[1],upregulation
same,expression of ibpAB and clpAB (protein protection and repair),[1],increased
same,expression of marA,[1],upregulated
same,change in expression of gene adiA,[1]; [3],−2.97 ± 0.87
same,change in expression of gene adiC,[1]; [3],−2.56 ± 1.03
same,change in expression of gene adiY,[1]; [3],−0.17 ± 0.65
same,change in expression of gene bhsA,[1]; [3],4.78 ± 0.60
same,change in expression of gene bssR,[1]; [3],−1.75 ± 1.29
same,change in expression of gene bssS,[1]; [3],4.08 ± 0.84
same,change in expression of gene clpA,[1]; [3],2.07 ± 0.63
same,change in expression of gene clpB,[1]; [3],4.51 ± 0.69
same,change in expression of gene clpP,[1]; [3],0.38 ± 0.59
same,change in expression of gene coaA,[1]; [3],−3.09 ± 0.90
same,change in expression of gene coaD,[1]; [3],−1.68 ± 0.97
same,change in expression of gene cspA,[1]; [3],−4.88 ± 0.58
same,change in expression of gene cspB,[1]; [3],−5.73 ± 1.38
same,change in expression of gene cspC,[1]; [3],−3.36 ± 0.94
same,change in expression of gene cspD,[1]; [3],1.73 ± 0.58
same,change in expression of gene cspE,[1]; [3],−1.94 ± 0.64
same,change in expression of gene cspF,[1]; [3],−3.40 ± 1.07
same,change in expression of gene dhaK,[1]; [3],1.05 ± 0.59
same,change in expression of gene dhaL,[1]; [3],−0.04 ± 0.64
same,change in expression of gene dnaJ,[1]; [3],3.71 ± 0.69
same,change in expression of gene dnaK,[1]; [3],4.53 ± 0.66
same,change in expression of gene fabA,[1]; [3],−2.84 ± 0.81
same,change in expression of gene fabB,[1]; [3],−0.39 ± 0.68
same,change in expression of gene fabD,[1]; [3],−2.33 ± 0.53
same,change in expression of gene flgA,[1]; [3],−3.05 ± 1.60
same,change in expression of gene flgB,[1]; [3],−8.74 ± 1.90
same,change in expression of gene flgC,[1]; [3],−8.87 ± 2.24
same,change in expression of gene flgD,[1]; [3],−6.75 ± 2.03
same,change in expression of gene flgE,[1]; [3],−4.68 ± 1.21
same,change in expression of gene flgF,[1]; [3],−5.18 ± 1.70
same,change in expression of gene flgG,[1]; [3],−6.73 ± 1.69
same,change in expression of gene flgH,[1]; [3],−4.17 ± 1.80
same,change in expression of gene gabD,[1]; [3],−2.21 ± 1.41
same,change in expression of gene gabP,[1]; [3],−1.47 ± 1.32
same,change in expression of gene gabT,[1]; [3],−1.57 ± 1.34
same,change in expression of gene gadA,[1]; [3],−0.71 ± 0.69
same,change in expression of gene gadB,[1]; [3],0.96 ± 0.79
same,change in expression of gene gadC,[1]; [3],1.56 ± 0.80
same,change in expression of gene gadE,[1]; [3],−0.46 ± 0.60
same,change in expression of gene gadW,[1]; [3],−4.10 ± 0.99
same,change in expression of gene gadX,[1]; [3],−2.01 ± 0.57
same,change in expression of gene gadY,[1]; [3],−3.37 ± 0.80
same,change in expression of gene glpA,[1]; [3],5.44 ± 0.87
same,change in expression of gene glpB,[1]; [3],2.96 ± 0.64
same,change in expression of gene glpC,[1]; [3],2.92 ± 0.81
same,change in expression of gene groL,[1]; [3],4.05 ± 0.57
same,change in expression of gene groS,[1]; [3],4.43 ± 0.50
same,change in expression of gene hchA,[1]; [3],3.17 ± 0.60
same,change in expression of gene hslJ,[1]; [3],1.12 ± 0.66
same,change in expression of gene hslO,[1]; [3],1.72 ± 0.65
same,change in expression of gene hslR,[1]; [3],2.12 ± 0.65
same,change in expression of gene hslU,[1]; [3],1.52 ± 0.56
same,change in expression of gene hslV,[1]; [3],0.88 ± 0.62
same,change in expression of gene ibpA,[1]; [3],5.74 ± 1.21
same,change in expression of gene ibpB,[1]; [3],6.79 ± 1.50
same,change in expression of gene lipA,[1]; [3],0.31 ± 0.60
same,change in expression of gene lipB,[1]; [3],−2.33 ± 0.69
same,change in expression of gene narG,[1]; [3],2.47 ± 0.65
same,change in expression of gene narH,[1]; [3],1.99 ± 0.62
same,change in expression of gene narI,[1]; [3],0.99 ± 0.94
same,change in expression of gene narJ,[1]; [3],1.39 ± 0.69
same,change in expression of gene narK,[1]; [3],−0.93 ± 0.90
same,change in expression of gene potA,[1]; [3],−5.42 ± 0.87
same,change in expression of gene potB,[1]; [3],−2.50 ± 1.32
same,change in expression of gene potC,[1]; [3],−2.97 ± 1.28
same,change in expression of gene pspA,[1]; [3],5.48 ± 0.55
same,change in expression of gene pspB,[1]; [3],3.26 ± 0.68
same,change in expression of gene rpoA,[1]; [3],−0.58 ± 0.44
same,change in expression of gene rpoB,[1]; [3],−0.72 ± 0.40
same,change in expression of gene rpoC,[1]; [3],−1.03 ± 0.39
same,change in expression of gene rpoD,[1]; [3],1.30 ± 0.70
same,change in expression of gene rpoE,[1]; [3],−1.10 ± 0.62
same,change in expression of gene rpoH,[1]; [3],1.72 ± 0.52
same,change in expression of gene rpoN,[1]; [3],−1.50 ± 0.49
same,change in expression of gene rpoS,[1]; [3],1.73 ± 0.47
same,change in expression of gene rpoZ,[1]; [3],−0.91 ± 0.54
same,change in expression of gene spy,[1]; [3],8.88 ± 0.87
same,change in expression of gene tatA,[1]; [3],−2.04 ± 0.52
same,change in expression of gene tatB,[1]; [3],−2.87 ± 0.60
same,change in expression of gene tatC,[1]; [3],−4.38 ± 1.21
same,change in expression of gene tatD,[1]; [3],−4.11 ± 1.20
same,change in expression of gene tatE,[1]; [3],0.70 ± 0.64
same,number of genes with significant changes in expression,"[1]; vs control, Bon Ferroni corrected p-value<0.05",831 genes
B1,Isobutene production,[2],6.44±0.95 pmol*min-1 *mg protein-1
